Where two headings read alike, the source gives them in different places.

The format of data set [1] is physicochemical. The note with it: buffer, 1000 ppm. As to the method:
A solution containing 1000 ppm citral in distilled water was homogenized with a high speed homogenizer. This solution was stored in a beaker covered with porous paper for a week. The concentration of citral remaining after a week was determined by a gas chromatography. A standard curve was prepared with reagent grade citral to which b-ionone was used as internal standard. At the beginning of the study and after a week the concentration of citral was determined by plotting it on the standard curve.

The format of data set [2] is physicochemical. The note with it: buffer, 1000 ppm. As to the method:
A solution containing 1000 ppm citral in distilled water was homogenized with a high speed homogenizer. This solution was stored in a closed glass bottle for four weeks. Concentration of citral remaining was determined by a gas chromatography. A standard curve was prepared with reagent grade citral to which b-ionone was used as internal standard. At the beginning of the study and weekly the concentration of citral was determined by plotting it on the standard curve.
This is another data set of the same source.

Data set [3] deals with E. coli. As to the kind of experiment: Biocidal effect of terpenes in organic preservative-free apple juice (Example 7). The class given is cell-based. The note with it: 250 ppm in unpasteurized apple juice, E. coli added, one week room temperature. As to the method: To 100 ml of unpasteurized apple juice was added different concentration of terpenes varying from 0 to 250 ppm. After mixing, 0.5 ml of 1×10^6 cfu E. coli was added to each juice/terpene mixture and incubated at room temperature for a week. After incubation, 0.1 ml of each of the solutions was plated onto nutrient agar and incubated for 18 hours at 37° C. Results are expressed as cfu/ml and percent reduction as compared to control.

The subject of data set [4] is E. coli. The note with it: cited from earlier work.

For `CC(C)=CCCC(C)=CC=O` [Citral, citral], the figures for the “Percentage of citral remaining, Week 1” value in data set [1] (1 week) and in data set [2] (1 week) were 21.5% and 32%, respectively. In addition, the “Percentage of citral remaining, Day 1” value in data set [1] (1 day) and in data set [2] (1 day) was 100% throughout. Moreover, the “Percentage of citral remaining, Week 2” value in data set [2] (2 week) was 27%. Further, the “Percentage of citral remaining, Week 4” value in data set [2] (4 week) worked out at 22%. Also, the “% reduction” value in the data set on E. coli [3] is recorded as 100%. Moreover, the cfu/ml in the data set with E. coli [3] was 0 cfu/ml. Also, the “citral concentration in growth media that reduced the concentration of E. coli” value with E. coli [4] was “more than 0.01%”. The “citral concentration with bactericidal effect” value in the data set on E. coli [4] (growth media) is listed as 0.08%.

For `CC(=O)/C=C/C1=C(C)CCCC1(C)C` [B-ionone], in the data set with E. coli [3], the “% reduction” value is 100% and the cfu/ml was determined as 0 cfu/ml.

These data come from US20050170052A1, “Water and feed preservative for animal uses” (priority 2004, published 2005).
